The results in this text go back to the NIST ThermoML archive (doi:10.1021/je700512a).

The structures appear in SMILES notation. Numbers after ± are expanded uncertainties.

For the data set the following is noted: Liquid, Ebulliometric method (Recirculating still).

By vapor or sublimation pressure is commonly meant the equilibrium pressure above the liquid or solid. `C1COCCO1` [1,4-dioxane]: the “vapor or sublimation pressure” value by setting is: (288.15 K) 2.703 ± 0.053 kPa; (298.15 K) 4.975 ± 0.061 kPa; (308.15 K) 8.119 ± 0.068 kPa.
On the same counts, the results for `O` [water] are 1.706 ± 0.04 kPa, 3.172 ± 0.047 kPa and 5.556 ± 0.055 kPa.
